Experimental data reported in ChEMBL document CHEMBL1145879, “Phosphonooxymethyl prodrugs of the broad spectrum antifungal azole, ravuconazole: synthesis and biological properties” (Bioorg Med Chem Lett, 2003).
Values after ≈ are worked out from the molar mass of the structure shown. One block for each compound: values may come before it.

Tests used:
Type in all cases: physicochemical
[1] = Aqueous solubility was determined; settings: buffer
[2] = Aqueous solubility at pH 7
[3] = Aqueous solubility at pH 6.6

solubility [1]: 0.6 µg/mL (≈ 1.37 µM)
Compound: C[C@@H](c1nc(-c2ccc(C#N)cc2)cs1)[C@](O)(Cn1cncn1)c1ccc(F)cc1F [RAVUCONAZOLE]

solubility [2]: > 30 µg/mL
Compound: C[C@@H](c1nc(-c2ccc(C#N)cc2)cs1)[C@@](Cn1cncn1)(OCOP(=O)(O)O)c1ccc(F)cc1F [FOSRAVUCONAZOLE]

solubility [3]: > 30 µg/mL
Compound: C[C@@H](c1nc(-c2ccc(C#N)cc2)cs1)[C@](O)(Cn1c[n+](COP(=O)([O-])O)cn1)c1ccc(F)cc1F
